This experiment concerns the target human Gal-3 (hGal-3) (Homo sapiens (Human), UniProt P17931). Kind of experiment: competitive binding assay: binding of biotinylated hGal-3 to microplate-adsorbed asialofetuin (ASF), spectrophotometric. Conditions: Activity on hGal-3; mean values of several measurements. In a few lines:
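Spectrophotometric readout (streptavidin-peroxidase, ABTS) of biotinylated galectin retained on ASF-coated wells. Biotinylated hGal-1 or hGal-3, 300-1000 ng/mL, co-incubated with test compound 3 h at 4° C, then washed. Mean IC50 from repeat runs.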
Sequence of human Gal-3 (hGal-3) (P17931 whole entry): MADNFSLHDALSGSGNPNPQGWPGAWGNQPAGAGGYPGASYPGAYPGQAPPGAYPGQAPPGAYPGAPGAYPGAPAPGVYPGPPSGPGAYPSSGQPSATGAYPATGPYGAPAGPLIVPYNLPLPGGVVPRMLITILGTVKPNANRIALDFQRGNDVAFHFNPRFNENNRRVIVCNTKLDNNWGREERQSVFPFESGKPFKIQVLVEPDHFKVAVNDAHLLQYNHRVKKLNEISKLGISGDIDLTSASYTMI
Turning to `CC(=O)O[C@@H]1[C@@H](n2cc(-c3cc(F)c(Cl)c(F)c3)nn2)[C@@H](O)[C@@H](CO)O[C@H]1C(=O)N(c1cc(Cl)cc(C#N)c1)[C@H]1CCC[C@@H]1O` [Example 1A.5.4, (2R,3R,4S,5R,6R)-4-(4-(4-chloro-3,5-difluorophenyl)-1H-1,2,3-triazol-1-yl)-2-((3-chloro-5-cyanophenyl)((1S,2S)-2-hydroxycyclopentyl)carbamoyl)-5-hydroxy-6-(hydroxymethyl)tetrahydro-2H-pyran-3-yl acetate], the IC50 turned out to be 16.4 nM.

`CO[C@@H]1[C@@H](n2cc(-c3ccc(Br)c(F)c3F)nn2)[C@@H](O)[C@@H](CO)O[C@H]1C(=O)N(c1cc(F)cc(C#N)c1)[C@H]1CC[C@@H]1O` [Example 2.12.7, (2R,3R,4S,5R,6R)-4-(4-(4-bromo-2,3-difluorophenyl)-1H-1,2,3-triazol-1-yl)-N-(3-cyano-5-fluorophenyl)-5-hydroxy-N-((1S,2S)-2-hydroxycyclobutyl)-6-(hydroxymethyl)-3-methoxytetrahydro-2H-pyran-2-carboxamide]: the IC50 was 48 nM.

Compound `COc1cc(-c2cn([C@H]3[C@@H](O)[C@@H](CO)O[C@@H](C(=O)N(c4cc(Br)cc(Br)c4)[C@H]4CC[C@@H]4O)[C@@H]3OC)nn2)cc(F)c1F` [Example 2.3.11, (2R,3R,4S,5R,6R)-N-(3,5-dibromophenyl)-4-(4-(3,4-difluoro-5-methoxyphenyl)-1H-1,2,3-triazol-1-yl)-5-hydroxy-N-((1S,2S)-2-hydroxycyclobutyl)-6-(hydroxymethyl)-3-methoxytetrahydro-2H-pyran-2-carboxamide] displayed an IC50 of 113 nM. Compared with the last compound, the IC50 is about 2.4-fold higher.

The compound `CO[C@@H]1[C@@H](n2cc(-c3ccc(Cl)c(F)c3F)nn2)[C@@H](O)[C@@H](CO)O[C@H]1C(=O)N(c1cc(Br)cc(C#N)c1)[C@H]1CCC[C@@H]1O` [Example 1.14.5, (2R,3R,4S,5R,6R)-N-(3-bromo-5-cyanophenyl)-4-(4-(4-chloro-2,3-difluorophenyl)-1H-1,2,3-triazol-1-yl)-5-hydroxy-N-((1S,2S)-2-hydroxycyclopentyl)-6-(hydroxymethyl)-3-methoxytetrahydro-2H-pyran-2-carboxamide] had an IC50 of 17.4 nM.

For the compound `CO[C@@H]1[C@@H](n2cc(-c3ccc(Br)c(F)c3F)nn2)[C@@H](O)[C@@H](CO)O[C@H]1C(=O)N(c1cc(Cl)cc(Cl)c1)[C@H]1CCC[C@@H]1O` [Example 1.12.2, (2R,3R,4S,5R,6R)-4-(4-(4-bromo-2,3-difluorophenyl)-1H-1,2,3-triazol-1-yl)-N-(3,5-dichlorophenyl)-5-hydroxy-N-((1S,2S)-2-hydroxycyclopentyl)-6-(hydroxymethyl)-3-methoxytetrahydro-2H-pyran-2-carboxamide], the IC50 stood at 23.7 nM.

Turning to `CO[C@@H]1[C@@H](n2cc(-c3cc(F)c(Cl)c(F)c3)nn2)[C@@H](O)[C@@H](CO)O[C@H]1C(=O)N(c1cc(Cl)cc(C#N)c1)[C@@H]1CC[C@H]1O` [Example 2.5.4R, (2R,3R,4S,5R,6R)-4-(4-(4-chloro-3,5-difluorophenyl)-1H-1,2,3-triazol-1-yl)-N-(3-chloro-5-cyanophenyl)-5-hydroxy-N-((1R,2R)-2-hydroxycyclobutyl)-6-(hydroxymethyl)-3-methoxytetrahydro-2H-pyran-2-carboxamide], the IC50 worked out at 193 nM. Against the preceding compound, the IC50 is about 8.1-fold higher.

Compound `CO[C@@H]1[C@@H](n2cc(-c3cc(F)c(F)c(F)c3)nn2)[C@@H](O)[C@@H](CO)O[C@H]1C(=O)N(c1cc(Br)cc(C#N)c1)[C@H]1CCC[C@@H]1O` [Example 1.1.5, (2R,3R,4S,5R,6R)-N-(3-bromo-5-cyanophenyl)-5-hydroxy-N-((1S,2S)-2-hydroxycyclopentyl)-6-(hydroxymethyl)-3-methoxy-4-(4-(3,4,5-trifluorophenyl)-1H-1,2,3-triazol-1-yl)tetrahydro-2H-pyran-2-carboxamide] gave an IC50 of 23 nM.

`CO[C@@H]1[C@@H](n2cc(-c3ccc(Br)c(F)c3F)nn2)[C@@H](O)[C@@H](CO)O[C@H]1C(=O)N(c1cc(Cl)cc(C#N)c1)[C@H]1CCC[C@@H]1O` [Example 1.12.4, (2R,3R,4S,5R,6R)-4-(4-(4-bromo-2,3-difluorophenyl)-1H-1,2,3-triazol-1-yl)-N-(3-chloro-5-cyanophenyl)-5-hydroxy-N-((1S,2S)-2-hydroxycyclopentyl)-6-(hydroxymethyl)-3-methoxytetrahydro-2H-pyran-2-carboxamide] returned a concentration for half-maximal inhibition (IC50) of 21.7 nM.

In turn, `CO[C@@H]1[C@@H](n2cc(-c3cc(F)c(F)c(F)c3)nn2)[C@@H](O)[C@@H](CO)O[C@H]1C(=O)N(c1cc(Br)cc(Br)c1)[C@@H]1CCC[C@H]1O` [Example 1.1.11R, (2R,3R,4S,5R,6R)-N-(3,5-dibromophenyl)-5-hydroxy-N-((1R,2R)-2-hydroxycyclopentyl)-6-(hydroxymethyl)-3-methoxy-4-(4-(3,4,5-trifluorophenyl)-1H-1,2,3-triazol-1-yl)tetrahydro-2H-pyran-2-carboxamide] returned an IC50 of 390 nM. This IC50 is about 18-fold higher than that of the compound before.

On to `CO[C@@H]1[C@@H](n2cc(-c3ccc(Br)c(F)c3F)nn2)[C@@H](O)[C@@H](CO)O[C@H]1C(=O)N(c1cc(Br)cc(C#N)c1)[C@H]1CC[C@@H]1O` [Example 2.12.5, (2R,3R,4S,5R,6R)-4-(4-(4-bromo-2,3-difluorophenyl)-1H-1,2,3-triazol-1-yl)-N-(3-bromo-5-cyanophenyl)-5-hydroxy-N-((1S,2S)-2-hydroxycyclobutyl)-6-(hydroxymethyl)-3-methoxytetrahydro-2H-pyran-2-carboxamide], for which the IC50 is 25.9 nM.

`CO[C@@H]1[C@@H](n2cc(-c3ccc(Cl)c(Cl)c3)nn2)[C@@H](O)[C@@H](CO)O[C@H]1C(=O)N(c1cc(Br)cc(C#N)c1)[C@H]1CC[C@@H]1O` [Example 2.8.5, (2R,3R,4S,5R,6R)-N-(3-bromo-5-cyanophenyl)-4-(4-(3,4-dichlorophenyl)-1H-1,2,3-triazol-1-yl)-5-hydroxy-N-((1S,2S)-2-hydroxycyclobutyl)-6-(hydroxymethyl)-3-methoxytetrahydro-2H-pyran-2-carboxamide]: the IC50 was determined as 155 nM. This IC50 is about 6-fold higher than that of the compound before.

`CO[C@@H]1[C@@H](n2cc(-c3ccc(Cl)c(F)c3F)nn2)[C@@H](O)[C@@H](CO)O[C@H]1C(=O)N(c1cc(Cl)cc(C#N)c1)[C@@H]1CCC[C@H]1O` [Example 1.14.4R, (2R,3R,4S,5R,6R)-4-(4-(4-chloro-2,3-difluorophenyl)-1H-1,2,3-triazol-1-yl)-N-(3-chloro-5-cyanophenyl)-5-hydroxy-N-((1R,2R)-2-hydroxycyclopentyl)-6-(hydroxymethyl)-3-methoxytetrahydro-2H-pyran-2-carboxamide] displayed an IC50 of 89.8 nM.

In turn, `COc1cc(C#N)cc(N(C(=O)[C@@H]2O[C@H](CO)[C@H](O)[C@H](n3cc(-c4cc(F)cc(Br)c4)nn3)[C@H]2OC)[C@H]2CCC[C@@H]2O)c1` [Example 1.10.9, (2R,3R,4S,5R,6R)-4-(4-(3-bromo-5-fluorophenyl)-1H-1,2,3-triazol-1-yl)-N-(3-cyano-5-methoxyphenyl)-5-hydroxy-N-((1S,2S)-2-hydroxycyclopentyl)-6-(hydroxymethyl)-3-methoxytetrahydro-2H-pyran-2-carboxamide] registered a concentration for half-maximal inhibition (IC50) of 174 nM.

Compound `CC(=O)O[C@@H]1[C@@H](n2cc(-c3cc(F)c(Cl)c(F)c3)nn2)[C@@H](O)[C@@H](CO)O[C@H]1C(=O)N(c1cc(Cl)cc(Cl)c1)[C@H]1CCC[C@@H]1O` [Example 1A.5.2, (2R,3R,4S,5R,6R)-4-(4-(4-chloro-3,5-difluorophenyl)-1H-1,2,3-triazol-1-yl)-2-((3,5-dichlorophenyl)((1S,2S)-2-hydroxycyclopentyl)carbamoyl)-5-hydroxy-6-(hydroxymethyl)tetrahydro-2H-pyran-3-yl acetate] showed an IC50 of 19.8 nM.

Regarding `CO[C@@H]1[C@@H](n2cc(-c3cc(F)c(F)c(Cl)c3)nn2)[C@@H](O)[C@@H](CO)O[C@H]1C(=O)N(c1cc(Br)cc(C#N)c1)[C@H]1CCC[C@@H]1O` [Example 1.7.5, (2R,3R,4S,5R,6R)-N-(3-bromo-5-cyanophenyl)-4-(4-(3-chloro-4,5-difluorophenyl)-1H-1,2,3-triazol-1-yl)-5-hydroxy-N-((1S,2S)-2-hydroxycyclopentyl)-6-(hydroxymethyl)-3-methoxytetrahydro-2H-pyran-2-carboxamide], the IC50 worked out at 21.2 nM.

With `CO[C@@H]1[C@@H](n2cc(-c3ccc(Br)c(F)c3F)nn2)[C@@H](O)[C@@H](CO)O[C@H]1C(=O)N(c1cc(Cl)cc(C#N)c1)[C@@H]1CC[C@H]1O` [Example 2.12.4R, (2R,3R,4S,5R,6R)-4-(4-(4-bromo-2,3-difluorophenyl)-1H-1,2,3-triazol-1-yl)-N-(3-chloro-5-cyanophenyl)-5-hydroxy-N-((1R,2R)-2-hydroxycyclobutyl)-6-(hydroxymethyl)-3-methoxytetrahydro-2H-pyran-2-carboxamide], the IC50 was 135 nM.

`CO[C@@H]1[C@@H](n2cc(-c3ccc(C#N)c(F)c3)nn2)[C@@H](O)[C@@H](CO)O[C@H]1C(=O)N(c1cc(Br)cc(C#N)c1)[C@@H]1CCC[C@H]1O` [Example 1.16.5R, (2R,3R,4S,5R,6R)-N-(3-bromo-5-cyanophenyl)-4-(4-(4-cyano-3-fluorophenyl)-1H-1,2,3-triazol-1-yl)-5-hydroxy-N-((1R,2R)-2-hydroxycyclopentyl)-6-(hydroxymethyl)-3-methoxytetrahydro-2H-pyran-2-carboxamide] returned an IC50 of 729 nM.

`CO[C@@H]1[C@@H](n2cc(-c3cc(F)c(F)c(F)c3)nn2)[C@@H](O)[C@@H](CO)O[C@H]1C(=O)N(c1cc(Br)cc(C#N)c1)[C@@H]1CC[C@H]1O` [Example 2.1.5R, (2R,3R,4S,5R,6R)-N-(3-bromo-5-cyanophenyl)-5-hydroxy-N-((1R,2R)-2-hydroxycyclobutyl)-6-(hydroxymethyl)-3-methoxy-4-(4-(3,4,5-trifluorophenyl)-1H-1,2,3-triazol-1-yl)tetrahydro-2H-pyran-2-carboxamide] came in with an IC50 of 191 nM. This IC50 is about 3.8-fold lower than that of the compound before.

The values above are taken from US20230348442A1, “GALECTIN-3 INHIBITING 2-HYDROXYCYCLOALKANE-1-CARBAMOYL DERIVATIVES” (Idorsia Pharmaceuticals Ltd, priority 2020, published 2023).
